These results are taken from paper PMC6934184, “Selective DNA-PKcs inhibition extends the therapeutic index of localized radiotherapy and chemotherapy” (The Journal of Clinical Investigation, 2019).

This assay addresses p110α (Homo sapiens, UniProt P42336). Description: SelectScreen Profiling IC50. Format: biochemical. Here is the method: The in vitro kinase selectivity of NU5455 was determined using the SelectScreen Broad Assay Panel (Thermo Fisher Scientific) involving activity and binding assays (Supplemental Table 1). […] Class IA PI3Ks were measured using the p85α subunit.
PI3K Kinase NU5455 IC (nM) Fold selectivity
Supplemental Table 2. NU5455 potency and selectivity across the PI3K kinase family.
µM NU5455 for DNA-PK versus other PIKK and PI3K family members was assessed by SelectScreen Profiling (Life Technologies). The
ATP concentration was the Kmapp except for * where the ATP concentration was 10 μM (mean ± SEM, n=4-7).

SMILES strings stand for the structures.

p110α, sequence (P42336 whole entry): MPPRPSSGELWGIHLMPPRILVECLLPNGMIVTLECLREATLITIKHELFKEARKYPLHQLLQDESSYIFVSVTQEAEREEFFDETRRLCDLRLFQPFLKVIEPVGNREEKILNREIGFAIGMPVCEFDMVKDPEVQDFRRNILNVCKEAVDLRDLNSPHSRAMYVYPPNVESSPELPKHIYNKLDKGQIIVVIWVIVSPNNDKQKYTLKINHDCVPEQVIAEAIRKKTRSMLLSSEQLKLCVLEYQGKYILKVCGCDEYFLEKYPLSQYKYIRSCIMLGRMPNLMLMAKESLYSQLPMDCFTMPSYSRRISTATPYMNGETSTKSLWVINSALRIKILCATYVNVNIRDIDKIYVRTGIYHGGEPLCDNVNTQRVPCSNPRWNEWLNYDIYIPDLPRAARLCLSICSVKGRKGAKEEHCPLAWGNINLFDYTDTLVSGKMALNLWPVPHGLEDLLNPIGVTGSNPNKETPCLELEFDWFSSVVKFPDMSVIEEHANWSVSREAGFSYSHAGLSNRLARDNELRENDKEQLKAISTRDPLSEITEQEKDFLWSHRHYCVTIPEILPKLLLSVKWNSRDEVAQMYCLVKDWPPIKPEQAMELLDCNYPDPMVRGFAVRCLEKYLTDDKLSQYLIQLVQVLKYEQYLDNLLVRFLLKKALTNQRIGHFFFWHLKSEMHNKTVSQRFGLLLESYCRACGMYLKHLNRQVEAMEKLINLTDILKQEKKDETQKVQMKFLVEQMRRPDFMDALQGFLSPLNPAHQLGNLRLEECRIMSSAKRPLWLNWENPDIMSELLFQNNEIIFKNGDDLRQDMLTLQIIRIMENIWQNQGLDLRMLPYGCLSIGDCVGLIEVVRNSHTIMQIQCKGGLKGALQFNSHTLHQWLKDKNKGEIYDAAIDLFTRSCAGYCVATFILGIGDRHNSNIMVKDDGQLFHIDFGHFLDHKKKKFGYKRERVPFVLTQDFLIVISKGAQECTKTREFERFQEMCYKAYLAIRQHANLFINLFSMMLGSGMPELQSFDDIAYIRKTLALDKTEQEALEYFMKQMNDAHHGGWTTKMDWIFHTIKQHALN
p110α, sequence (P27986 whole entry partner): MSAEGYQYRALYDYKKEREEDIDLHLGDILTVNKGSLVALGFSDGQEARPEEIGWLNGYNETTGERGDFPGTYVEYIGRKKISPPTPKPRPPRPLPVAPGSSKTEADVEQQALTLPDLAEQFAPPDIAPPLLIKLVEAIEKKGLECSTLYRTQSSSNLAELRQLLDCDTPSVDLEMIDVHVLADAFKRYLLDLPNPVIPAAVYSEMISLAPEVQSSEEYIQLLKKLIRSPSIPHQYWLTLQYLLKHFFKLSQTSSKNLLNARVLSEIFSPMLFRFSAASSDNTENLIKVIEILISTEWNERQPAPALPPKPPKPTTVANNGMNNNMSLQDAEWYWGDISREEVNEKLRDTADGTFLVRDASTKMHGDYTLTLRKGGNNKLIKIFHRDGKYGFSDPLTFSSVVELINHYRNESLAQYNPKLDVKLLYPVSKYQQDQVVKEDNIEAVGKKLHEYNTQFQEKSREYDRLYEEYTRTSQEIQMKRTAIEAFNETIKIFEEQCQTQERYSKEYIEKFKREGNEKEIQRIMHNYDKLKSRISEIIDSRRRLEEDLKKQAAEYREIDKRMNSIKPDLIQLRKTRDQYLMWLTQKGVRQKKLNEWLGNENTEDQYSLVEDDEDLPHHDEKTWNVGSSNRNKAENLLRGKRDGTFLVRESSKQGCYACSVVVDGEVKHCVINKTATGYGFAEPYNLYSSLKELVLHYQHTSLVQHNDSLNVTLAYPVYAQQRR

Consider `CN(C(=O)CN1CCOCC1)c1ccc2sc3c(-c4cccc5c(=O)cc(N6CC7CCC(C6)O7)oc45)cccc3c2c1` [NU5455], for which the IC50 (cell-free, ATP Km app, p85α subunit, mean ± SEM, read-out: NU5455 IC50) came to 1870 ± 216 nM. Also, the “Fold selectivity for DNA-PK” value (versus p110α (PI3Kα)) is on record as 228 fold.

A word on the IC50: it is the concentration at which inhibition is half-maximal.
